According to patent publication US6562856B1, “Pyrazolyl benzyl ether deriviatives having a fluoromethoxy group and the use thereof as pesticides” (Bayer Aktiengesellschaft, priority 1999, dated 2003):

How the values were obtained:
[1] = test system: caterpillars of the armyworm (Spodoptera frugiperda); experiment: Spodoptera frugiperda Test; assay type: in vivo; conditions: cabbage leaves dipped, concentration of active compound 1000 ppm
Source text: Spodoptera frugiperda Test
(§1) Solvent: 30 parts by weight of acetone

Podosphaera leucotricha = experiment: Podosphaera Test (Apple)/protective; assay type: in vivo; conditions: protective, application rate 100 g/ha, evaluation 10 days after inoculation
Method: Podosphaera Test (Apple)/protective
(§2) To test for protective activity, young plants are sprayed with the preparation of active compound at the stated application rate. After the spray coating has dried on, the plants are inoculated with an aqueous spore suspension of the apple mildew pathogen Podosphaera leucotricha. The plants are then placed in a greenhouse at about 23° C. and a relative atmospheric humidity of about 70%.
(§3) Evaluation is carried out 10 days after the inoculation. 0% means an efficacy which corresponds to that of the control, whereas an efficacy of 100% means that no infection is observed.

Sphaerotheca fuliginea = experiment: Sphaerotheca Test (Cucumber)/protective; assay type: in vivo; conditions: protective, application rate 100 g/ha, evaluation 10 days after inoculation
Method: Sphaerotheca Test (Cucumber)/protective
as §2, with “Sphaerotheca fuliginea.” for “the apple mildew pathogen Podosphaera leucotricha.”
as §3

Alternaria solani = experiment: Alternaria Test (Tomato)/protective; assay type: in vivo; conditions: protective, application rate 750 g/ha, evaluation 7 days after inoculation
Method: Alternaria Test (Tomato)/protective
To test for protective activity, young tomato plants are sprayed with the preparation of active compound at the stated application rate. 1 day after the treatment, the plants are inoculated with a spore suspension of Alternaria solani and then remain at 100% rel. humidity and 20° C. for 24 h. The plants then remain at 96% rel. atmospheric humidity and a temperature of 20° C.
Evaluation is carried out 7 days after the inoculation. 0% means an efficacy which corresponds to that of the control, whereas an efficacy of 100% means that no infection is observed.

[2] = test system: green peach aphid (Myzus persicae); experiment: Myzus test; assay type: in vivo; conditions: broad bean seedlings dipped, concentration of active compound 1000 ppm
Source text: as §1

[3] = test system: greenhouse red spider mite (Tetranychus urticae); experiment: Tetranychus Test (OP-resistant/dip Treatment); conditions: bean plants dipped, OP-resistant, concentration of active compound 100 ppm
Method: Emulsifier: 1 part by weight of alkylaryl polyglycol ether
After the desired period of time, the kill in % is determined. 100% means that all spider mites have been killed; 0% means that none of the spider mites have been killed.

Leptosphaeria nodorum = Leptosphaeria nodorum Test (Wheat)/protective; assay type: in vivo; conditions: protective, application rate 750 g/ha, evaluation 12-14 days after inoculation
Method: Leptosphaeria nodorum Test (Wheat)/protective
To test for protective activity, young wheat plants are sprayed with the preparation of active compound at the stated application rate. 1 day after the treatment, the plants are inoculated with an aqueous spore suspension of Leptosphaeria nodorum and then remain at 100% rel. atmospheric humidity and 20° C. for 48 h. The plants are then placed in a greenhouse at 80% rel. atmospheric humidity and a temperature of 22° C.
Evaluation is carried out 12-14 days after the inoculation. 0% means an efficacy which corresponds to that of the control, whereas an efficacy of 100% means that no infection is observed.

Pyricularia oryzae = assay type: in vivo; conditions: rice, protective, application rate 125 g/ha, evaluation 7 days after inoculation
[4] = test system: larvae of the mustard beetle (Phaedon cochleariae); experiment: Phaedon Larvae Test; assay type: in vivo; conditions: cabbage leaves dipped, concentration of active compound 1000 ppm
Source text: as §1

Plasmopara viticola = experiment: Plasmopara Test (Grapevine)/protective; assay type: in vivo; conditions: protective, application rate 100 g/ha, evaluation 6 days after inoculation
Method: Plasmopara Test (Grapevine)/protective
To test for protective activity, young plants are sprayed with the preparation of active compound at the stated application rate. After the spray coating has dried on, the plants are inoculated with an aqueous spore suspension of Plasmopara viticola and then remain in an incubation cabinet at about 20° C. and 100% relative atmospheric humidity for 1 day. The plants are then placed in a greenhouse at about 21° C. and about 90% relative atmospheric humidity for 5 days. The plants are then moistened and placed in an incubation cabin for 1 day.
Evaluation is carried out 6 days after the inoculation. 0% means an efficacy which corresponds to that of the control, whereas an efficacy of 100% means that no infection is observed.

COC(=O)C(=COCF)c1ccccc1COc1ccn(-c2ccc(Cl)cc2)n1 [Example 1, methyl 2-[2-({[1-(4-chlorophenyl)-1H-pyrazol-3-yl]oxy}methyl)phenyl]-3-(fluoromethoxy)-2-acrylate] gave a kill rate [1] of 100%, an efficacy (Podosphaera leucotricha) of at least 98% and an efficacy (Sphaerotheca fuliginea) of at least 98%. The efficacy (Alternaria solani) was at least 80%, the kill rate [2] was 100% and the kill rate [3] was 90%. It also gave an efficacy (Leptosphaeria nodorum) of at least 98%, an efficacy (Pyricularia oryzae) of at least 80% and a kill rate [4] of 100%. For the same compound, the chromatographic logP was 3.91 and the efficacy (Plasmopara viticola) was at least 98%.
